Measured values taken from the supplement of paper PMC4862054.
Several values for one entry are separate records, joined by “and”; a condition that tells them apart may be missing. Equal entries are not always repeated.

System: CAL-85-1
Assay: normalised viability (% of control), CellTiter-Blue; higher = more viable cells (about 100 = DMSO control)
Settings: incubation time: 72 h
Protocol: (§1)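 DSRT, CellTiter-Blue viability, 72 h incubation. Signal is normalised to DMSO and benzethonium chloride controls. Value is the normalised response at dose 6.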

**Q.** For `NC(=O)c1ccc(I)c([N+](=O)[O-])c1` [Iniparib] (300 nM), which normalised viability is on record?
**A.** 88.8%

**Q.** With `CCc1c2c(nc3ccc(OC(=O)N4CCC(N5CCCCC5)CC4)cc13)-c1cc3c(c(=O)n1C2)COC(=O)[C@]3(O)CC` [Irinotecan] (300 nM) as the compound, how does the normalised viability read?
**A.** 81.2% and 99.8%

**Q.** Which normalised viability does the source give for `Oc1ccc2c(c1)CC[C@H](c1ccccc1)[C@@H]2c1ccc(OCCN2CCCC2)cc1` [Lasofoxifene] (30 nM) here?
**A.** 100%

**Q.** How did the normalised viability turn out when `Cc1ccc(NC(=O)c2ccc(CN3CCN(C)CC3)cc2)cc1Nc1nc(-c2cccnc2)cs1` [Masitinib] (300 nM) was run?
**A.** 90.4%

System: DU-4475
Assay: as above
Settings: incubation time: 72 h
Protocol: as §1

**Q.** Which normalised viability does the source give for `Cc1cc(Nc2cc(CN3CCOCC3)c3nc(C)c(Cc4ccc(Cl)cc4F)n3n2)n[nH]1` (300 nM) here?
**A.** 104%

**Q.** Which normalised viability does the source give for `N#Cc1ccc(COC[C@H]2O[C@@H](n3c(NCc4ccc(Cl)c(Cl)c4)nc4c(N)ncnc43)[C@H](O)[C@@H]2O)cc1` (300 nM) here?
**A.** 91.7%

**Q.** For `COc1cc(OC2CCN(C)CC2)ccc1Nc1ncc2c(n1)n(C1CCCC1)c(=O)n2C` [AZ 3146] (300 nM), which normalised viability is on record?
**A.** 115%

**Q.** How did the normalised viability turn out when `CN(C)c1nc(N(C)C)nc(N(C)C)n1` [Altretamine] (300 nM) was run?
**A.** 110%

**Q.** `COC(=O)c1ccc2c(c1)NC(=O)/C2=C(\Nc1ccc(N(C)C(=O)CN2CCN(C)CC2)cc1)c1ccccc1` [BIBF 1120] (300 nM) was tested. Which normalised viability did it give?
**A.** 91.9%

**Q.** With `Nc1cc(C(F)(F)F)c(-c2cc(N3CCOCC3)nc(N3CCOCC3)n2)cn1` [BKM-120] (300 nM) as the compound, how does the normalised viability read?
**A.** 102%

**Q.** `O=C(/C=C/c1cccc(S(=O)(=O)Nc2ccccc2)c1)NO` [Belinostat] (300 nM) was tested. Which normalised viability did it give?
**A.** 59.2%

**Q.** For `O=P1(N(CCCl)CCCl)NCCCO1` (stereo unspecified) [Cyclophosphamide] (1200 nM), which normalised viability is on record?
**A.** 96.2%

**Q.** Which normalised viability does the source give for `C=C1C[C@@H]2[C@H](CC[C@]3(C)C(=O)CC[C@@H]23)[C@@]2(C)C=CC(=O)C=C12` [Exemestane] (300 nM) here?
**A.** 81.7%

**Q.** With `COc1cc2ncnc(Nc3ccc(F)c(Cl)c3)c2cc1OCCCN1CCOCC1` [Gefitinib] (300 nM) as the compound, how does the normalised viability read?
**A.** 83.8% and 84.4%

**Q.** With `O=C(Nc1ccncc1)C(=O)c1cn(Cc2ccc(Cl)cc2)c2ccccc12` [Indibulin] (300 nM) as the compound, how does the normalised viability read?
**A.** 115%

**Q.** Which normalised viability does the source give for `NC(=O)c1ccc(I)c([N+](=O)[O-])c1` [Iniparib] (300 nM) here?
**A.** 84%

**Q.** `CCc1c2c(nc3ccc(OC(=O)N4CCC(N5CCCCC5)CC4)cc13)-c1cc3c(c(=O)n1C2)COC(=O)[C@]3(O)CC` [Irinotecan] (300 nM) was tested. Which normalised viability did it give?
**A.** 74.1% and 85.6%

**Q.** For `Oc1ccc2c(c1)CC[C@H](c1ccccc1)[C@@H]2c1ccc(OCCN2CCCC2)cc1` [Lasofoxifene] (30 nM), which normalised viability is on record?
**A.** 93%

**Q.** How did the normalised viability turn out when `Cc1ccc(NC(=O)c2ccc(CN3CCN(C)CC3)cc2)cc1Nc1nc(-c2cccnc2)cs1` [Masitinib] (300 nM) was run?
**A.** 98.7%

System: HDQ-P1
Assay: as above
Settings: incubation time: 72 h
Protocol: as §1

**Q.** With `Cc1cc(Nc2cc(CN3CCOCC3)c3nc(C)c(Cc4ccc(Cl)cc4F)n3n2)n[nH]1` (300 nM) as the compound, how does the normalised viability read?
**A.** 45.8%

**Q.** Which normalised viability does the source give for `N#Cc1ccc(COC[C@H]2O[C@@H](n3c(NCc4ccc(Cl)c(Cl)c4)nc4c(N)ncnc43)[C@H](O)[C@@H]2O)cc1` (300 nM) here?
**A.** 67%

**Q.** `COc1cc(OC2CCN(C)CC2)ccc1Nc1ncc2c(n1)n(C1CCCC1)c(=O)n2C` [AZ 3146] (300 nM) was tested. Which normalised viability did it give?
**A.** 76.6%

**Q.** `CN(C)c1nc(N(C)C)nc(N(C)C)n1` [Altretamine] (300 nM) was tested. Which normalised viability did it give?
**A.** 88.5%

**Q.** Which normalised viability does the source give for `COC(=O)c1ccc2c(c1)NC(=O)/C2=C(\Nc1ccc(N(C)C(=O)CN2CCN(C)CC2)cc1)c1ccccc1` [BIBF 1120] (300 nM) here?
**A.** 100%

**Q.** `Nc1cc(C(F)(F)F)c(-c2cc(N3CCOCC3)nc(N3CCOCC3)n2)cn1` [BKM-120] (300 nM) was tested. Which normalised viability did it give?
**A.** 71.9%

**Q.** `O=C(/C=C/c1cccc(S(=O)(=O)Nc2ccccc2)c1)NO` [Belinostat] (300 nM) was tested. Which normalised viability did it give?
**A.** 26.6%

**Q.** With `O=P1(N(CCCl)CCCl)NCCCO1` (stereo unspecified) [Cyclophosphamide] (1200 nM) as the compound, how does the normalised viability read?
**A.** 81.5%

**Q.** How did the normalised viability turn out when `C=C1C[C@@H]2[C@H](CC[C@]3(C)C(=O)CC[C@@H]23)[C@@]2(C)C=CC(=O)C=C12` [Exemestane] (300 nM) was run?
**A.** 78%

**Q.** How did the normalised viability turn out when `COc1cc2ncnc(Nc3ccc(F)c(Cl)c3)c2cc1OCCCN1CCOCC1` [Gefitinib] (300 nM) was run?
**A.** 64% and 66.2%

**Q.** `O=C(Nc1ccncc1)C(=O)c1cn(Cc2ccc(Cl)cc2)c2ccccc12` [Indibulin] (300 nM) was tested. Which normalised viability did it give?
**A.** 30.7%

**Q.** Which normalised viability does the source give for `NC(=O)c1ccc(I)c([N+](=O)[O-])c1` [Iniparib] (300 nM) here?
**A.** 87.2%

**Q.** How did the normalised viability turn out when `CCc1c2c(nc3ccc(OC(=O)N4CCC(N5CCCCC5)CC4)cc13)-c1cc3c(c(=O)n1C2)COC(=O)[C@]3(O)CC` [Irinotecan] (300 nM) was run?
**A.** 64.5% and 88.1%

**Q.** Which normalised viability does the source give for `Oc1ccc2c(c1)CC[C@H](c1ccccc1)[C@@H]2c1ccc(OCCN2CCCC2)cc1` [Lasofoxifene] (30 nM) here?
**A.** 60.8%

**Q.** `Cc1ccc(NC(=O)c2ccc(CN3CCN(C)CC3)cc2)cc1Nc1nc(-c2cccnc2)cs1` [Masitinib] (300 nM) was tested. Which normalised viability did it give?
**A.** 68.5%

System: MDA-MB-453
Assay: as above
Settings: incubation time: 72 h
Protocol: as §1

**Q.** For `Cc1cc(Nc2cc(CN3CCOCC3)c3nc(C)c(Cc4ccc(Cl)cc4F)n3n2)n[nH]1` (300 nM), which normalised viability is on record?
**A.** 63.9%

**Q.** With `N#Cc1ccc(COC[C@H]2O[C@@H](n3c(NCc4ccc(Cl)c(Cl)c4)nc4c(N)ncnc43)[C@H](O)[C@@H]2O)cc1` (300 nM) as the compound, how does the normalised viability read?
**A.** 112%

**Q.** For `COc1cc(OC2CCN(C)CC2)ccc1Nc1ncc2c(n1)n(C1CCCC1)c(=O)n2C` [AZ 3146] (300 nM), which normalised viability is on record?
**A.** 97.2%

**Q.** How did the normalised viability turn out when `CN(C)c1nc(N(C)C)nc(N(C)C)n1` [Altretamine] (300 nM) was run?
**A.** 112%

**Q.** With `COC(=O)c1ccc2c(c1)NC(=O)/C2=C(\Nc1ccc(N(C)C(=O)CN2CCN(C)CC2)cc1)c1ccccc1` [BIBF 1120] (300 nM) as the compound, how does the normalised viability read?
**A.** 105%

**Q.** How did the normalised viability turn out when `Nc1cc(C(F)(F)F)c(-c2cc(N3CCOCC3)nc(N3CCOCC3)n2)cn1` [BKM-120] (300 nM) was run?
**A.** 71.2%

**Q.** Which normalised viability does the source give for `O=C(/C=C/c1cccc(S(=O)(=O)Nc2ccccc2)c1)NO` [Belinostat] (300 nM) here?
**A.** 16.9%
